Values quoted from earlier work, collected in patent publication US20030082215A1 (priority 1999, published 2003).
Read-outs that look alike come from different tables or passages of the source.

- bioavailability (conventional gelatin capsule form, after meals): 89%
- bioavailability (conventional gelatin capsule form, on an empty stomach): 26%
- bioavailability (gelatin capsule containing a 300 mg dose, healthy volunteers): ~30%
SMILES: CC(C)OC(=O)C(C)(C)Oc1ccc(C(=O)c2ccc(Cl)cc2)cc1 [fenofibrate]
